Biological target: Cytochrome P450 3A4 (Homo sapiens, UniProt P08684)
Sequence (P08684 whole entry): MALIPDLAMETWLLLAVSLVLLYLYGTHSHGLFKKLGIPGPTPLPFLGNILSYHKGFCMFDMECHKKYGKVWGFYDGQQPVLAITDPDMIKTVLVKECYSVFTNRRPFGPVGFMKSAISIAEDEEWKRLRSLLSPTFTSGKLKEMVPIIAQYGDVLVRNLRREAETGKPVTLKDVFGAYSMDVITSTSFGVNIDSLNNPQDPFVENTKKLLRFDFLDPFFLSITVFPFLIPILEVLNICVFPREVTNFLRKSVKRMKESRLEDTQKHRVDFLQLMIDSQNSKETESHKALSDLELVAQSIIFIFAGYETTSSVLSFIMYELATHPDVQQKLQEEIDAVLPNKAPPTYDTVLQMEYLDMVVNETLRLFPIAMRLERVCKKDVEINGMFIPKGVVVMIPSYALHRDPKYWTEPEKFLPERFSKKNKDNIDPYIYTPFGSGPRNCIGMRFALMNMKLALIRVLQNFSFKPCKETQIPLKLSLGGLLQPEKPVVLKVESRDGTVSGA

| SMILES | IC50 [µM] |
| --- | --- |
| OCc1ncc2n1-c1ccc(Cl)cc1C(c1ccccc1F)=NC2 [ALPHA-HYDROXY-MIDAZOLAM] | 10 |
| OC1N=C(c2ccccc2F)c2cc(Cl)ccc2-n2cncc21 (configuration not stated) | 10 |
